Laboratory results from patent US9844546B2, “Antibody against human HIF hydroxylase” (OXFORD UNIVERSITY INNOVATION LIMITED, priority 2001, dated 2017).

Columns and labels:
U2OS and Hep3B cells = test: HRE-dependent luciferase reporter assay after transient transfection of NODD/CODD plasmids; assay type: cell-based, human; details: normoxic conditions, 24 hours
From the text: Since normoxic HIFα degradation is saturable ^17 and depends on sub-regions within the ODD we tested whether peptides encoding the HIF-1α amino terminal ODD (NODD) and carboxy terminal ODD (CODD) ^21 could affect HIF activity as measured by hypoxia response element (HRE)-dependent reporter gene expression. Briefly, Degradation is prevented by the NODD and CODD polypeptides competing for prolyl hydroxylation and/or VHL binding, thereby blocking subsequent ubiquitination. We constructed plasmids encoding NODD (HIF-1-α aa 343-417) or CODD (HIF-1-α aa 549-582) linked to nuclear localisation sequences and a c-myc epitope tag. These plasmids were transiently co-transfected into U2OS and Hep3B cells with an HRE-dependent luciferase reporter plasmid. […]
For reporter gene assays DNA fragments encoding HIF-1α amino acids 343-417, 380-417, 390-417, 390-410, 343-400, 530-95, 530-82, 549-82, 556-74 and 530-62 were generated by PCR using oligonucleotides containing 5′ SacII or 3′ AscI sites and inserted into a pCMV/myc/nuc (Invitrogen) derivative bearing these sites in frame with the NLS and epitope tag. […] To generate tet-operator dependent plasmids the open reading frames from the aa343-417 and aa549-82 constructs were subcloned into pUHD 10 ^34. […]

U2OS cells = U2OS cells stably transfected with doxycycline-inducible NODD or CODD; assay type: cell-based, human
Method: To explore further the therapeutic potential of NODD and CODD polypeptides to activate endogenous HIF we stably transfected U2OS cells with doxycycline-inducible NODD (doxNODD) and CODD constructs (doxCODD) encoding identical sequences to those used for transient transfections.
Cells stably transfected with NODD or CODD controlled by the tetracycline-inducible system were exposed to doxycycline. Cell extracts were prepared 0, 16, 24 and 48 hours after exposure to doxycycline. The extracts of doxNODD (HIF-1α aa343-417), doxCODD (HIF-1α aa549-82) and control cells (empty vector) were then immunoblotted for HIF-1α protein. Increased HIF-1α signals were detected from 16-48 hours following doxycycline administration in doxNODD and doxCODD cells but not in empty vector cells. Levels of HIF-1α induced by hypoxia were also measured for comparison. The endogenous HIF-1α induction was doxycycline dose (0.2-3.2 μg/ml) and time dependent, peaking after 48 hours. Maximal levels were about 20% and about 70% of HIF-1α levels seen following hypoxic or DFO treatment of the doxNODD and doxCODD cells respectively. […]
Stably transfected cell lines were generated by transfecting U2OS cells bearing the reverse tetracycline responsive transactivator ^34 and the tetKRAB silencer construct ^36 with pUHD/HIF plasmids. Following selection in G418 (1 mg/ml) individual colonies were picked. DoxNODD (F21) and doxCODD (myc19) clones expressed pUHD/HIF-1aa343-417/3NLS/c-myc and pUHD/HIF-1α aa549-82/3NLS/c-myc respectively. […]
Cell extracts were prepared in buffer (8M urea, 10% glycerol, 1% SDS, 5 mM DTT, 10 mM Tris/pH 6.8), separated by SDS-PAGE and transferred to Immobilon-P membrane (Millipore). Primary antibodies against HIF-1α, c-myc tag and HA tag were from Transduction Laboratories, Innogenex and Roche Molecular respectively. […]

[1] = tested on: human microvascular endothelial cells (HMEC-1); test: Tubule formation assay, co-culture with HMEC-1; assay type: cell-based; details: intermittent doxycycline over 5 days
From the text: Artificial activation of the HIF signalling pathway using the methods of the invention should induce angiogenesis and will therefore be of potential therapeutic use in ischaemic disease. We tested the effect of polypeptide induced HIF stabilisation in an in vitro angiogenesis assay, co-culturing human microvascular endothelial cells (HMEC-1) with empty vector transfected or doxCODD cells. In view of the possibility of sustained activation inducing a negative feedback loop we opted to test the effects of intermittent induction. […] As a positive control epidermal Growth Factor (EGF; 5 ng/ml), which is known to induce growth of HMEC-1, was used. To extend these observations into an in vivo model we assayed the effects of injecting tat-fusion proteins into polyurethane sponges implanted subcutaneously in mice. Intermittent injections on days 1, 2, 4 and 5 led to a markedly accelerated angiogenic response assayed on day 7 when compared with sponges injected with proline mutant fusion proteins, excluding a contribution from the tat component ^28. […]
doxCODD or empty vector cells were co-cultivated with human microvascular endothelial cells (HMEC-1) in a ratio of 2:1 in DMEM 10% doxycycline free FCS (Clontech), 2 mM Glutamine and 100 U/ml Penicillin/100 μg/ml Streptomycin. […] Endothelial cells were detected using antibodies to von Willebrand factor (vWF) (Dako).

VHL E3 ubiquitin ligase = molecular target: T1, VHL E3 ubiquitin ligase (Homo sapiens, UniProt P40337); test: VHL E3 interaction assay with 35S-labelled tat-ODD IVTT products; assay type: binding; details: after modification by cell extracts
T1 construct: expressed in transfected cells; host or cells: 786-0 cells stably transfected with pcDNA3 VHL.HA (whole extract, anti-HA immunoprecipitation)
T1 sequence (P40337 whole entry): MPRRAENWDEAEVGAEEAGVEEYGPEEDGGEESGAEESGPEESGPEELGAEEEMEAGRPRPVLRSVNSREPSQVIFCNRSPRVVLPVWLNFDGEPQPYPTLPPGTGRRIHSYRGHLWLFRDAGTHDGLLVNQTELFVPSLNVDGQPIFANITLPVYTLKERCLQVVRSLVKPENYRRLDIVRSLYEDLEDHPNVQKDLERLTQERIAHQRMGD
T1 sequence (Q15370 whole entry partner): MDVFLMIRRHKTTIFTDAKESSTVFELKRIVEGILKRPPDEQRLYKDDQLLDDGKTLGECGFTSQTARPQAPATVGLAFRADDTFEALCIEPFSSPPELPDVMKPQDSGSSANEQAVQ
T1 sequence (Q15369 whole entry partner): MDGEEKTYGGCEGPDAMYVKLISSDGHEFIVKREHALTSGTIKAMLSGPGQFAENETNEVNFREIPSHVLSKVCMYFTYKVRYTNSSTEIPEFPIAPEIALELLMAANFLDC
T1 sequence (Q13617 whole entry partner): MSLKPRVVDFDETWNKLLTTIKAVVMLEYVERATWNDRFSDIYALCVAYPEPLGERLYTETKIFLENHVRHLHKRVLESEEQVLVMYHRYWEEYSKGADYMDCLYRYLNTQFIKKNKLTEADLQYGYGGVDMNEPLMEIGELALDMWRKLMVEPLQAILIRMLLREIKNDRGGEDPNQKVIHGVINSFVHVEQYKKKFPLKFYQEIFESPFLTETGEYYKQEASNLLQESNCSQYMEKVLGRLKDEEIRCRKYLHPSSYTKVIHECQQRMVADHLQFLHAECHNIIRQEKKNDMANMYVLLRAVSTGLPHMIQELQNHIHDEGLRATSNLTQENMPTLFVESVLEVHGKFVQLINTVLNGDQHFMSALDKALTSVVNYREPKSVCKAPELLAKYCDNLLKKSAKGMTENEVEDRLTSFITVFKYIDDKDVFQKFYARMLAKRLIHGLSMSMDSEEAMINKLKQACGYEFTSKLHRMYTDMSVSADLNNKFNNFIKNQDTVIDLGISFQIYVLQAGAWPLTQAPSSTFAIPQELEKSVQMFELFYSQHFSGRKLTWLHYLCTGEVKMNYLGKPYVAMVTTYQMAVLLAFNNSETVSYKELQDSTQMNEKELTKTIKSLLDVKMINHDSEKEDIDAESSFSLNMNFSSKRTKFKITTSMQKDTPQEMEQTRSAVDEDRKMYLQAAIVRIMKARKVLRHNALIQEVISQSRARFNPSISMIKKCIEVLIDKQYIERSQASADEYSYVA
T1 sequence (P62877 whole entry partner): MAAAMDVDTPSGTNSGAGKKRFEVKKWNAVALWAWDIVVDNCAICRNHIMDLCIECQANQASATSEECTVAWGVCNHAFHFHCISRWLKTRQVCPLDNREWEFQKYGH
From the text: Concordant with the ubiquitination assays discussed above NODD (HIF-1α 343-417) and CODD (HIF-1α 549-582) polypeptides, but not their corresponding proline mutants (HIF-1α 343-417/P402A and HIF-1α 549-582/P564G), bound to VHL E3 ubiquitin ligase after modification by cell extracts. The ^35S-methionine labelled recombinant polypeptides therefore interacted with VHL, supporting the results of the ubiquitination experiments discussed above. The interaction was enhanced by the presence of cell extracts which promote hydroxylation of the prolines at positions 402 and 564 ^19. In contrast, no binding occurred using peptides in which prolines were mutated.
For VHL E3 interaction assays ^35S-methionine labelled HIF-1a substrates were prepared by transcription/translation using TnT7 rabbit reticulocyte lysate (Promega). 100 μM DFO was added to the reaction to suppress prolyl hydroxylase activity of the reticulocyte lysate. Substrate modification was achieved by incubation of HIF-1α translate with RCC4 cell lysate in the presence of ferrous chloride (100 μM). Interaction with VHL E3 was analysed as described previously ^21.

For “CODD: HIF-1α carboxy terminal ODD polypeptide (aa 549-582) with nuclear localisation sequences and c-myc tag, plasmid expressed”, the “HRE-dependent relative luciferase activity” value (U2OS and Hep3B cells) was “increased relative luciferase activity”, the 3H-glucose uptake (U2OS cells; 24 hours induction with doxycycline, versus empty vector cells) was “enhanced uptake of ^3H-glucose” and the “ubiquitination of exogenous 35S-methionine labelled HIF-1α” value (U2OS cells; cell extracts versus empty vector extracts) was “markedly reduced”. The “Maximal HIF-1α level relative to hypoxic or DFO treatment” value (U2OS cells; doxycycline 0.2-3.2 μg/ml, peaking after 48 hours) was “about 70%”, the “Glut-1 mRNA (ribonuclease protection)” value (U2OS cells; doxycycline repeatedly added, 0-8 days) was “increased for the first 4 days and then declined” and the “CAIX mRNA (ribonuclease protection)” value (U2OS cells; doxycycline, 24 and 48 hours) was “markedly induced mRNA levels”. The “tubule formation of co-cultured endothelial cells” value [1] was “assembly of co-cultured endothelial cells into complex tubular structures” and the “binding to VHL E3 ubiquitin ligase” value (VHL E3 ubiquitin ligase) was “bound”.
